From patent US10039844B2, “Imaging tumor glycolysis by non-invasive measurement of pyruvate kinase M2” (The Board of Trustees of the Leland Stanford Junior …, priority 2014, dated 2018)
Each block holds one compound with its values, some of them ahead of it.

How the values were obtained:
[1] = Ex vivo mouse plasma stability; assay type: in vitro ADME; settings: after 60 min, 37° C.
Procedure: Plasma Stability: [^11C]DASA-23 stability in mouse plasma was assessed ex vivo according to previously described methodology (James et al., (2012) J. Med. Chem. 55: 8272-8282, incorporated herein by reference in its entirety.
Samples were incubated for 10 min, 30 min, and 60 min and compared to a standard from the respective injected probe.

[2] = tested on: orthotopic U87 human gliomas; experiment: PET imaging of orthotopic U87 tumors in mice; assay type: in vivo, mouse; settings: 30 min after injection
Procedure: In vivo Tumor Models: For subcutaneous tumor models, U87 tumor cells (5×10^6 cells; 100 μL PBS) were injected subcutaneously on the back of female BALB/c nude mice (aged 6-8 weeks; Charles River Laboratories) and grown to approximately 150 mm^3. Tumor dimensions were measured periodically using a caliper (by the same experienced researcher), with tumor volumes calculated by the equation: volume=(π/6)×a×b×c, where a, b, and c represent three orthogonal axes of the tumor. For orthotopic brain tumor models, 2×10^5 U87 cells were implanted 0.5 mm anterior and 2 mm to the right of the bregma in the brains of 6-8 week-old nude mice, held in place using a stereotactic unit. The cells, suspended in 4 μL PBS, were injected at a depth of 3 mm over 5 min with an AS blunt-ended Hamilton syringe, which was subsequently held in place for a further 5 min. […]
The count densities were averaged for all volumes of interest at each time point to obtain a time versus radioactivity curve (TAC). Tumor and tissue TACs were normalized to injected dose, measured by a CRC-15 PET dose calibrator (Capintec, Inc.), and expressed as percentage injected dose per milliliter of tissue (% ID/mL). The area under the TAC, calculated as the integral of % ID/mL from 0 to 60 min, and the normalized uptake of radiotracer at 60 min (% ID/mL60) were also used for comparisons. […]

[3] = tested on: PKM2 in orthotopic GBM39 PDX tumors; experiment: PET imaging of orthotopic GBM39 PDX tumors at baseline and after TEPP-46 blocking; assay type: in vivo, mouse
Procedure: (§1) In vivo Tumor Models: For subcutaneous tumor models, U87 tumor cells (5×10^6 cells; 100 μL PBS) were injected subcutaneously on the back of female BALB/c nude mice (aged 6-8 weeks; Charles River Laboratories) and grown to approximately 150 mm^3. Tumor dimensions were measured periodically using a caliper (by the same experienced researcher), with tumor volumes calculated by the equation: volume=(π/6)×a×b×c, where a, b, and c represent three orthogonal axes of the tumor. For orthotopic brain tumor models, 2×10^5 U87 cells were implanted 0.5 mm anterior and 2 mm to the right of the bregma in the brains of 6-8 week-old nude mice, held in place using a stereotactic unit. The cells, suspended in 4 μL PBS, were injected at a depth of 3 mm over 5 min with an AS blunt-ended Hamilton syringe, which was subsequently held in place for a further 5 min. Animals were anaesthetized with an i.p. injection of 150 mg/kg ketamine, 15 mg/kg xylazine. Mice were subsequently imaged by MRI and PET 32-35 days post intracranial injection and GBM39 tumor-bearing mice were imaged between 44-50 days after implantation.
(§2) PET imaging scans were carried out on a docked Siemens Inveon PET/CT scanner (matrix size, 128×128×159; CT attenuation-corrected; non-scatter corrected), following a bolus i.v. injection of approximately 18.5 MBq of [^11C]DASA-23 into tumor-bearing mice. Dynamic scans were acquired in list mode format over 60 min. The acquired data were then sorted into 0.5-mm sinogram bins and 19 time frames for image reconstruction (4×15 s, 4×60 s and 11×300 s), which was done by iterative reconstruction using the following parameters: 3D ordered-subsets expectation maximization (3D-OSEM) followed by fast maximum a posteriori (fastMAP); MAP OSEM interations, 2; MAP subsets, 16; MAP iterations, 18.
(§3) The count densities were averaged for all volumes of interest at each time point to obtain a time versus radioactivity curve (TAC). Tumor and tissue TACs were normalized to injected dose, measured by a CRC-15 PET dose calibrator (Capintec, Inc.), and expressed as percentage injected dose per milliliter of tissue (% ID/mL). The area under the TAC, calculated as the integral of % ID/mL from 0 to 60 min, and the normalized uptake of radiotracer at 60 min (% ID/mL60) were also used for comparisons. Siemens Inveon Research Workplace software (v.4.0) was used for visualization of radiotracer uptake in the tumor, to define the three-dimensional (3D) volumes of interest (VOI) and for 3D-visualization to create volume rendering technique (VRT) images.

PKM2 [4] = biological target: T1, PKM2 (Homo sapiens, UniProt P14618); experiment: Radiotracer uptake after PKM2 siRNA knockdown in HeLa cells; assay type: cell-based; set-up: endogenous in cells; host or cells: HeLa
Procedure: PKM2 siRNA: Time course PKM2 knockdown in HeLa cells was assessed over 72 h post-transfection. Cells were seeded in 6-well plates in antibiotic-free DMEM at 1.5×10^6 cells/well 24 h prior to siRNA transfection with DharmaFECT1 (Thermo Scientific), according to the manufacturer's instruction. Specific siRNA targeting only PKM2 were custom made by Thermo Scientific using the following sequences: […] (sense) (SEQ ID NO: 1), […] (antisense) (SEQ ID NO: 2). Scrambled siRNA (siCtrl; Cell Signaling Technology) was used as a control. siRNA were added at a final concentration of 25 nM. [^11C]DASA-23 uptake (0.925 MBq/mL) was measured after 30 min in cells transfected with siCtrl and siPKM2 at 24 h, 48 h and 72 h post transfection, and processed as described in Example 4, above. Untreated cells were used as a further control, measured 24 h post addition of fresh DMEM and 96 h post seeding.
Western Blotting: Monoclonal rabbit antibody to PKM1 and PKM2 (1:1000 dilution, Cell Signaling Technology) were used in a standard western blotting protocol. A rabbit anti-actin antibody (Sigma-Aldrich Co. Ltd; 1:2000) was used as a loading control. Blots were scanned and signal quantification was performed using ImageJ (National Institutes of Health).
Target sequence in this assay (P14618 2-531 limits assumed): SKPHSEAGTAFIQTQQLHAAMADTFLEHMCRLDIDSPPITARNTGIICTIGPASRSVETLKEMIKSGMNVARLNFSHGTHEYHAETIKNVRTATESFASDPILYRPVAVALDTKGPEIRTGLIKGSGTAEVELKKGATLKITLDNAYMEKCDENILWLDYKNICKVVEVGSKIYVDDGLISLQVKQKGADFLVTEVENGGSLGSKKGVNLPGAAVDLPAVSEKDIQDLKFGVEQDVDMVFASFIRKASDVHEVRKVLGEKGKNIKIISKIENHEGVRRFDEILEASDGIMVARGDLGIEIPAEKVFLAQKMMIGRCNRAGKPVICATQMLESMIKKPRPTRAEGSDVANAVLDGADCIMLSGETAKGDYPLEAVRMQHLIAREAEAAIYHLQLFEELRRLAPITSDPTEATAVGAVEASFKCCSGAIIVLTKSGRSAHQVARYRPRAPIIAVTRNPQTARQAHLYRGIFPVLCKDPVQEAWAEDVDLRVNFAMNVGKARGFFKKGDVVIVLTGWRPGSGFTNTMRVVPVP

PKM2 [5] = biological target: T1, PKM2; settings: versus PKM1, PKR and PKL; cited from earlier work
Target sequence in this assay (P14618 whole entry, species assumed): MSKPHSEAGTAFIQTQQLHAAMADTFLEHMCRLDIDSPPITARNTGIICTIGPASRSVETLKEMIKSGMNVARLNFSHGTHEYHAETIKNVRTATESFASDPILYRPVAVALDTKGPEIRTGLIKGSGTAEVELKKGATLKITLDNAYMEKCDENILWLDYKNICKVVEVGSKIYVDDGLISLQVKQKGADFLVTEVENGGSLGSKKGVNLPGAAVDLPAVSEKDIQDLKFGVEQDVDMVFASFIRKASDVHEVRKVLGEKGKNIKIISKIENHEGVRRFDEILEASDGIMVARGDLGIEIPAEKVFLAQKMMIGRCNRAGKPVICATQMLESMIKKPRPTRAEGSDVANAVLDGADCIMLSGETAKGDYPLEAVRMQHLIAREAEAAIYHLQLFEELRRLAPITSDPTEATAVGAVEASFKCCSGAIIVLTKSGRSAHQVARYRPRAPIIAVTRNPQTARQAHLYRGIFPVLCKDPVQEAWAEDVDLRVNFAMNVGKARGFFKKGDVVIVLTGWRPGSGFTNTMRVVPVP

U87 human glioma cells = experiment: Cell uptake and efflux of radiotracer in U87 cells; assay type: cell-based
Procedure: (§4) Cell Uptake and Efflux Studies: U87 and HeLa cells (2×10^5) were plated into 6-well plates overnight before [^11C]DASA-23 uptake analysis. On the day of the experiment, fresh, pre-warmed DMEM containing 0.925 MBq of [^11C]DASA-23 was added to individual wells (1 mL/well, 9.25±4.63 pmol).
(§5) Cells were incubated with [^11C]DASA-23 at 37° C. and 5% CO2 over a 60 min time course. At the respective time points, plates were placed on ice, washed 3 times with ice-cold phosphate-buffered saline (PBS), and lysed in radioimmunoprecipitation assay buffer (Thermo Fisher Scientific Inc.; 500 μL). 300 μL cell lysates were transferred to counting tubes and decay-corrected radioactivity was determined on a y counter (Cobra II Auto-Gamma counter; Packard Biosciences Co.). The remaining lysate was frozen and used following radioactive decay for protein determination using a bicinchoninic acid (BCA) 96-well plate assay (Thermo Fisher Scientific Inc.) and for immunoblotting. In addition, 10 μL standards from the 0.925 MBq/mL solution added to cells were counted to quantitate percentage radiotracer uptake. For efflux studies, cells were incubated with radiotracer for 60 min, washed 3 times with room temperature (RT) Hank's Buffered Salt Solution (HBSS) before subsequent incubation at 37° C. in fresh, radiotracer-free, DMEM. At allotted times, samples were processed.

HeLa cells = experiment: Cell uptake and efflux of radiotracer in HeLa cells; assay type: cell-based, human
Procedure: as §4, §5

[6] = tested on: subcutaneous U87 human glioma xenografts; experiment: PET/CT and ex vivo biodistribution in mice bearing subcutaneous U87 xenografts; set-up: species or system mouse
Procedure: as §1, §2, §3
Ex vivo Biodistribution: After the PET imaging studies, 60 min post radiotracer administration, mice were sacrificed by exsanguination via cardiac puncture and tissues harvested. Tissue radioactivity for all organs was subsequently determined on a gamma counter (decay-corrected; Cobra II Auto-Gamma counter, Packard Biosciences Co, Pangbourne, UK). Ten-microliter standards from the stock activity were also counted for data normalization. Data were expressed as percent injected dose per gram of tissue (% ID/g).

[7] = 30 min post removal of exogenous radiotracer

- parent remaining in plasma [1]: > 96%
- radioactivity in the contralateral background tissue [2]: 0.78±0.18 % ID/g
- radioactivity in the tumor ([2]; orthotopic U87 tumor): 1.68±0.47 % ID/g
- tumor-associated retention at baseline ([3]; GBM39 tumor, 30 min after radiotracer injection): 1.61±0.25 % ID/g
- tumor-associated retention after TEPP-46 ([3]; GBM39 tumor, 30 min after radiotracer injection, 1 hour after TEPP-46 50 mg/kg i.p.): 0.93±0.10 % ID/g
- uptake in control, contralateral healthy brain ([3]; GBM39 tumor-bearing mice): 0.79±0.18 % ID/g
- reduction in uptake in siPKM2 cells versus control siRNA (PKM2 [4]; 24 h post transfection): 16.5%
- uptake in siPKM2 cells as % of siCtrl cells (PKM2 [4]; 72 h post transfection): 44.5%
- uptake ratio of U87 tumor to blood ([6]; 60 min post injection): 1.1
- uptake ratio of U87 tumor to brain ([6]; 60 min post injection): 2.1
- uptake ratio of U87 tumor to muscle ([6]; 60 min post injection): 1.6
- time of peak brain uptake ([6]; dynamic PET, normal brain, after injection): 30 s
- time to reach background levels in brain ([6]; dynamic PET, post injection): ≤ 10 min
- time of peak tumor uptake ([6]; dynamic PET, subcutaneous U87 tumor): 10 min
- accumulation in the brain ([6]; ex vivo biodistribution): did not accumulate in the brain
- U87 tumor uptake ([6]; ex vivo biodistribution, 60 min post injection): 1.78±0.23 % of the injected dose (ID)/g
Compound: [11CH3]Oc1ccc(S(=O)(=O)N2CCN(S(=O)(=O)c3c(F)cccc3F)CC2)cc1 [[^11C]DASA-23, 1-((2,6-difluorophenyl)sulfon-yl)-4-((4-(methoxy-^11C)phenyl)sulfonyl)piperazine]
- selectivity of activation versus other pyruvate kinase isozymes (PKM2 [5]): selective activation of PKM2
- initial intracellular radioactivity retained (U87 human glioma cells; [7]): about 40%
- cellular uptake (U87 human glioma cells; by 30 min): 19.6±2.0 % radioactivity/mg protein
- initial intracellular radioactivity retained (HeLa cells; [7]): about 40%
- cellular uptake (HeLa cells; by 30 min): 14.9±2.0 %radioactivity/mg protein

Compound: Cn1c2cc([S+](C)[O-])sc2c2cnn(Cc3cccc(N)c3)c(=O)c21 (centres unmarked) [TEPP-46, 6-((3-Aminophenyl)methyl)-4-methyl-2-methylsulfinylthieno[3,4]pyrrolo[1,3-d]pyridazin-5-one, reference compound]
- decrease of tumor-associated [^11C]DASA-23 retention ([3]; TEPP-46 50 mg/kg i.p., 1 hour before radiotracer): 42%
- effect on [^11C]DASA-23 tumor signal ([3]; one hour after TEPP-46 injection): complete ablation of tumor signal to background levels
